Experimental data from PMC8400033, “A Multicomponent Protocol for the Synthesis of Highly Functionalized γ-Lactam Derivatives and Their Applications as Antiproliferative Agents” (Pharmaceuticals, 2021).

Key:
[1] = tested on: RKO (human colon epithelial carcinoma); assay: CCK-8 antiproliferative assay, RKO cell line; type: cell-based
Protocol: (§2) In vitro cytotoxicity of the γ-lactam derivatives was evaluated by testing their antiproliferative activities against several human cancer cell lines. Cell counting kit (CCK-8) assay was used for the evaluation of growth inhibition.
(§3) All stock solutions of the investigated compounds were prepared by dissolving the powdered materials in appropriate amounts of DMSO. The final concentration of DMSO never exceeded 5% (v/v) in reactions. The stock solution was stored at 5 °C until it was used.
(§4) All were supplemented with 10% of fetal bovine serum (FBS) (Sigma-Aldrich, Madrid, Spain) and with 1% of NORMOCIN solution (Thermo Fisher, Waltham, Massachusetts, MA, USA). […] For cytotoxicity experiments, A549 cells were seeded in 96-well plates at a density of 2.5–3 × 10^3 cells per well and incubated overnight to achieve 70% of confluence at the time of exposition to the cytotoxic compound.

[2] = tested on: HTB81 (human prostate carcinoma); assay: CCK-8 antiproliferative assay, HTB81 cell line; type: cell-based
From the text: (§1) In a preliminary study, we tested the cytotoxicity of γ-lactam 4b as lead compound against seven human cancer cell lines: HEK293 (human embryonic kidney), MCF7 (human breast adenocarcinoma), HTB81 (human prostate carcinoma), HeLa (human epithelioid cervix carcinoma), RKO (human colon epithelial carcinoma), SKOV3 (human ovarian carcinoma) and A549 (carcinomic human alveolar basal epithelial cell). The cell proliferation inhibitory activity of γ-lactam 4b is shown as IC50 values (Figure 2).

[3] = tested on: HEK293 (human embryonic kidney); assay: CCK-8 antiproliferative assay, HEK293 cell line; type: cell-based
From the text: as §1

A549 cells [4] = assay: Flow cytometry apoptosis/necrosis assay (Annexin V FITC / propidium iodide); type: cell-based, human; details: A549, 5 µM; for Percentage of late-apoptotic and necrotic cells: FL-1 and FL-3 positive; for Percentage of early-apoptotic cells: FL-1 positive, FL-3 negative
Protocol: In addition, flow cytometry assays were performed using compound 4b in A549 cells at 12, 24, and 48 h post-exposure. Early apoptotic cells were FL-1 positive and FL-3 negative, meaning that they had initialized the apoptotic process but were still alive at the time of the measurement. Percentages of these early-apoptotic cells after 12, 24, and 48 h. were, respectively, 31.17 ± 2.04%, 34.97 ± 3.62% and 40.13 ± 0.81%. On the other hand, late apoptotic and necrotic cells were both FL-1 and FL-3 positive, meaning that they activated the apoptotic machinery and were dead at the time of the measurement. Percentages of late-apoptotic and necrotic cells after 12, 24 and 48 h were, respectively, 33.03 ± 1.43%, 37.60 ± 3.37% and 36.90 ± 0.70% (Figure 4). Control live cells were all FL-1 and FL-3 negative, while around 95% of control necrotic cells were FL-3 positive, FL-1 negative (See ESI). […] In fact, among all the dead cells detected, which were FL-1 positive, almost all were simultaneously positive for the FL-3 channel too, while only a small percentage (2% or lower) of dead cells were exclusively FL-1 positive. Therefore, the majority of dead cells detected in this study were apoptotic cells. In addition, the total percentages of […], which comprised early and late apoptotic cells, were over 60%, and the percentage increased over time.
Flow cytometry assays were conducted using a FACSCalibur system flow cytometer (Becton Dickinson Bioscience, Franklin Lakes, NJ, USA), to identify apoptotic cells and to differentiate them from necrotic cells. A549 cells were exposed to 5 µM of the cytotoxic compound 4b and cell apoptosis and necrosis were evaluated 12, 24, and 48 h after exposure. For that purpose, treated cells were washed with phosphate-buffered saline (PBS) (Sigma-Aldrich, Spain) and detached with trypsin/EDTA (0.25%) (Gibco, New York, NY, USA). Cells were centrifuged at 1100 rpm for 5 min, and then the resulting pellet was resuspended in cell growth media and transferred to specific flow cytometer tubes. Propidium iodide (Sigma-Aldrich, Spain) at 1:300 dilution was used in each sample to detect necrotic cells and eBioscience™ Annexin V Apoptosis Detection Kit FITC (Fisher Scientific, Spain) was used to detect apoptotic cells following the manufacturer’s instructions. The fluorescent signals corresponding to necrotic cells and apoptotic cells were measured at 650 nm (FL3) and 525 nm (FL1), respectively. […] Cells treated with 1 µM of camptothecin (Sigma-Aldrich, Spain) served as a positive control for apoptosis and were used to establish cytometer settings and channel compensations. The experiments were carried out in triplicate for each condition. For each sample, 10,000 events were collected.

A549 cells [5] = assay: Visualization of cell growth and morphology; type: cell-based, human
Protocol: Next, cell morphology analysis and flow cytometry assays were performed, to elucidate the mechanism of the antiproliferative activity of γ-lactam substrates. Cell morphology was analyzed at different time points after the addition of compound 4b to visualize the cellular modifications as a result of the treatment.
Qualitative analysis of A549 cell growth and morphology after exposure to 1 µM and 5 µM of the cytotoxic compound 4b was conducted using Cytation^TM 1 Cell Imaging Multi-Mode Reader (Biotek, Winooski, VT, USA). Cell images were acquired immediately after the addition of the compound and at the following time-points after exposure: 0.5, 1, 1.5, 2, 3, 4, 8, 12, 16, 24, and 48 h.

[6] = tested on: MCF7 (human breast adenocarcinoma); assay: CCK-8 antiproliferative assay, MCF7 cell line; type: cell-based
From the text: as §1

[7] = tested on: MRC5 non-malignant lung fibroblasts; assay: CCK-8 assay on non-malignant cells for selective toxicity; type: cell-based; details: Homo sapiens; MRC5 non-malignant lung fibroblasts, CCK-8; read-out: IC50 MRC5
Protocol: as §2, §3, §4
(§5) Both were supplemented with 10% of fetal bovine serum (FBS) (Sigma-Aldrich, Spain) and with 1% of NORMOCIN solution (Thermo Fisher, Waltham, Massachusetts, MA, USA). […] For cytotoxicity experiments, A549 cells were seeded in 96-well plates at a density of 2.5–3 × 10^3 cells per well and incubated overnight to achieve 70% of confluence at the time of exposition to the cytotoxic compound.

[8] = tested on: HeLa (human epithelioid cervix carcinoma); assay: CCK-8 antiproliferative assay, HeLa cell line; type: cell-based
From the text: as §1

[9] = tested on: SKOV3 (human ovarian carcinoma); assay: CCK-8 antiproliferative assay, SKOV3 cell line; details: Homo sapiens, SK-OV-3, read-out: IC50 SKOV3, SKOV3 cell line, CCK-8
Protocol: as §2, §3, §4

[10] = tested on: A549 (carcinomic human alveolar basal epithelial cell); assay: CCK-8 antiproliferative assay, A549 cell line; type: cell-based; details: Homo sapiens, A549, A549 cell line, CCK-8; read-out: IC50 A549
Protocol: as §2, §3, §4, §5

- IC50 [1]: 22.1 ± 2.98 µM
- IC50 [2]: 27.9 µM
- IC50 ([6]; Homo sapiens, MCF7, Figure 2): > 50 µM
- IC50 [8]: 30.2 µM
- IC50 [9]: 9.62 ± 1.18 µM
Compound: Cc1ccc(NC2=CC(c3ccccc3)N(c3ccc(C)cc3)C2=O)cc1 (stereo not drawn) [4b]
- Growth inhibition activity against HEK293, in words [3]: no grown inhibition activity
- IC50 ([3]; Homo sapiens, HEK293, Figure 2): > 50 µM
- Percentage of dead cells exclusively FL-1 positive (A549 cells [4]; 12-48 h): ≤ 2%
- Total percentage of FL-3 positive cells (early and late apoptotic cells) (A549 cells [4]; 12-48 h, increased over time): over 60%
- Percentage of late-apoptotic and necrotic cells (A549 cells [4]; 12 h post-exposure): 33.03 ± 1.43%
- Percentage of early-apoptotic cells (A549 cells [4]; 12 h post-exposure): 31.17 ± 2.04%
- Percentage of late-apoptotic and necrotic cells (A549 cells [4]; 24 h post-exposure): 37.60 ± 3.37%
- Percentage of early-apoptotic cells (A549 cells [4]; 24 h post-exposure): 34.97 ± 3.62%
- Percentage of late-apoptotic and necrotic cells (A549 cells [4]; 48 h post-exposure): 36.90 ± 0.70%
- Percentage of early-apoptotic cells (A549 cells [4]; 48 h post-exposure): 40.13 ± 0.81%
- Cell morphology and growth (A549 cells [5]; 1 µM, 0-48 h): healthy, uniform morphology
- Cell morphology and growth (A549 cells [5]; 5 µM, especially after 6 h of exposure): alterations of the cellular morphology
- Cell morphology (A549 cells [5]; higher concentrations (10 and 15 µM, 24 h)): high cytotoxicity
- Growth inhibition activity against MCF7, in words [6]: no grown inhibition activity
- IC50 [7]: > 50 µM
- IC50 [10]: 2.34 ± 0.28 µM
